Values quoted from earlier work in US12370144B2, “Centanafadine pharmaceutical formulations, and methods of making and using same” (OTSUKA PHARMACEUTICAL CO., LTD., priority 2021, dated 2025).

Assays:
[1] = molecular target: norepinephrine reuptake transporter (NET) (Homo sapiens, UniProt P23975); conditions: triple reuptake inhibitor, rank of potency
[2] = molecular target: dopamine reuptake transporter (DAT) (Homo sapiens, UniProt Q01959); conditions: fraction of the potency towards NET
[3] = molecular target: serotonin reuptake transporter (SERT) (Homo sapiens, UniProt P31645); conditions: fraction of the potency towards NET
serotonin reuptake transporter (SERT), sequence (P31645 whole entry, species assumed): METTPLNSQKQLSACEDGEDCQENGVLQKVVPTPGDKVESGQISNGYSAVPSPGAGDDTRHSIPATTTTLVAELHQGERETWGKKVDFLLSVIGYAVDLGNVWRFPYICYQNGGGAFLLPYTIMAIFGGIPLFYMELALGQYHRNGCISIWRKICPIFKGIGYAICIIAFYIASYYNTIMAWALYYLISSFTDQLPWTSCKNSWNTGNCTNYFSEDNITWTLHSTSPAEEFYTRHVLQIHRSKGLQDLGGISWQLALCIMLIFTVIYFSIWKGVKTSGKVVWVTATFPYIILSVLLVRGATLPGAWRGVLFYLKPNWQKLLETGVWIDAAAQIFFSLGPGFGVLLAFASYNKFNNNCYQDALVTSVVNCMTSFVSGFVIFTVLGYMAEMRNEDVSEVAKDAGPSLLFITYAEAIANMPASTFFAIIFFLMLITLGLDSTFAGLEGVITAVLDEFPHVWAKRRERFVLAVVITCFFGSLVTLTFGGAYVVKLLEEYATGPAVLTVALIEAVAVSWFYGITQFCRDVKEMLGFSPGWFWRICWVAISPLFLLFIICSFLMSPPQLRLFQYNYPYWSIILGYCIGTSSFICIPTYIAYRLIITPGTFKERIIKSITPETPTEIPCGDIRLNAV

[4] = not told

norepinephrine reuptake transporter (NET), sequence (P23975 whole entry): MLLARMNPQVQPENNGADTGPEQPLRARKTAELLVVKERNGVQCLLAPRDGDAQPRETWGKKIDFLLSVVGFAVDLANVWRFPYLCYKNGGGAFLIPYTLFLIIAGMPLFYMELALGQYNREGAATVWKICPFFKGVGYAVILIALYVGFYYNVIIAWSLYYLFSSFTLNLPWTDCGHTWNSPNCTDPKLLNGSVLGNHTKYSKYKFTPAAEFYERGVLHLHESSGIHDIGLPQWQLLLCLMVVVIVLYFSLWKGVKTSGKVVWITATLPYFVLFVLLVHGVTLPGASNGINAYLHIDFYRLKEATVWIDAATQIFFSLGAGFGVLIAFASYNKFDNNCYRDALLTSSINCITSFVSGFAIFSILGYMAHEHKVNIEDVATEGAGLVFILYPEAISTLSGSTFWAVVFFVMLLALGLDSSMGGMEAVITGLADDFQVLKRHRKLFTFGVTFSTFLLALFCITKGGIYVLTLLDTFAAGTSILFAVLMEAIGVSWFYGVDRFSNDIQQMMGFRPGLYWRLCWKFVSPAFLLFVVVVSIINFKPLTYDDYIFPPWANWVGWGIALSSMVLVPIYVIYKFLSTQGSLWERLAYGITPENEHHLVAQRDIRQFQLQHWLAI
dopamine reuptake transporter (DAT), sequence (Q01959 whole entry, species assumed): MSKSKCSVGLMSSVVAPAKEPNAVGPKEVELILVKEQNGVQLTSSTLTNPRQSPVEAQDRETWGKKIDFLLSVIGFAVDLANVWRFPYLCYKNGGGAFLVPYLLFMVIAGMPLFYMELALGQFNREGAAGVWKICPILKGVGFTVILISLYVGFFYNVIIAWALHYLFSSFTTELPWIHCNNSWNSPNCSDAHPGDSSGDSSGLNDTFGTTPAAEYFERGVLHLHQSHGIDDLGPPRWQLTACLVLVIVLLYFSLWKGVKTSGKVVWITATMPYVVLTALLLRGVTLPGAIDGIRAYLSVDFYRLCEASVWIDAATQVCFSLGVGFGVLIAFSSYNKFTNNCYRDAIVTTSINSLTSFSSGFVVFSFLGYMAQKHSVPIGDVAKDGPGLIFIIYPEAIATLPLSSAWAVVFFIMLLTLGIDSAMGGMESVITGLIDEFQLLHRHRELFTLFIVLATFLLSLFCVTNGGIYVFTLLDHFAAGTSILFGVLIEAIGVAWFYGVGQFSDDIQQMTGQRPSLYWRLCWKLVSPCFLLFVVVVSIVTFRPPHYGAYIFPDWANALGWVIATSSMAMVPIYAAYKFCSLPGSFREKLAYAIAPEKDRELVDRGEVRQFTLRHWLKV

SMILES: c1ccc2cc([C@]34CNC[C@H]3C4)ccc2c1 [centanafadine, (1R,5S)-1-(naphthalen-2-yl)-3-azabicyclo[3.1.0]hexane]
- Potency towards NET [1]: most potency
- Potency towards DAT relative to NET [2]: one-sixth
- Potency towards SERT relative to NET [3]: one-fourteenth
- Permeability [4]: highly permeable
